From patent US20250295795A1, “PEPTIDE” (priority 2021, published 2025) come the findings set out here.

“Also recorded” adds a separate entry of the source. No end group written: not given here.

In data set [1] the test system is HeLa cells. Description: Live cell confocal microscopy: cellular uptake and intracellular distribution of Tat conjugates in HeLa cells. It is filed as cell-based, human. The following applies: HeLa cells, 60 min, post-wash. As to the method:
The cellular uptake and intracellular distribution of Tat-trimers and monomeric controls was investigated by performing live cell confocal microscopy of HeLa (human, cervical cancer) and CHO (Chinese hamster, […]). Following washing, images were acquired using a Zeiss 780 confocal microscope fitted with an incubation chamber (FIG. 2). In accordance with observations that free Tat in the cytosol readily enters the nucleus and strongly binds to nucleoli,^29 homogenous staining of cytoplasm and nucleoli were considered as indicative of cells having accumulated free conjugate, not confined to endosomes, for quantification purposes. […] The uptake and intracellular distribution of tri-Tat A is similar in live Hela and CHO cells (FIG. 2b,d,e).
Following washing, images were acquired using a Zeiss 780 confocal microscope fitted with an incubation chamber. In accordance with observations that free Tat in the cytosol readily enters the nucleus and strongly binds to nucleoli,^29 homogenous staining of cytoplasm and nucleoli were considered as indicative of cells having accumulated free conjugate, not confined to endosomes, for quantification purposes. The results were compared to tri-Tat A (8) and tri-cTat B (17).
(§1) HeLa and CHO cells were cultured in DMEM supplemented with 10% FBS and penicillin/streptomycin. For post-wash experiments, Tat conjugate was added to the cells in serum free medium, cells incubated at 37° C. in an atmosphere of 5% CO2, culture medium removed at the desired time point, cells washed and transferred to the microscope for imaging. For time course or pre-wash experiments, cells were transferred to the microscope (incubation chamber at 37° C., 5% CO2) and Tat conjugate added directly to cell medium and cells imaged at desired time points. Co-delivery experiments were conducted by adding peptide trimer immediately followed by cargo into serum free medium. Samples were visualised using a Zeiss LSM 780 inverted confocal microscope fitted with a XLmultiS1 incubation chamber and Plan-Apochromat 63×/1.40 Oil DIC M27 objective. Images were analysed using ImageJ software. Digital adjustments and image processing are consistent throughout the manuscript, unless otherwise stated in the figure legend. Statistical analysis was carried out using GraphPad Prism 7 software and all data used for statistical analysis consists of measurements from distinct cells. Where applicable a parametric, unpaired, two-tailed t-test was used for statistical testing.

The subject of data set [2] is HeLa cells. The experiment in a line: Time course of uptake in Hela cells (continuous live cell confocal microscopy, ROI profile analysis). It is filed as cell-based, human. The following applies: 1 μM. As to the method: To better understand the mechanism by which tri-Tat A and tri-cTat B enter the cytosol and the nucleus, we investigated the uptake kinetics of the conjugates during the first 15 min after their addition to Hela cells using confocal live cell microscopy. Tri-Tat A (FIG. 3a) or tri-cTat B (FIG. 3b) (1 μM) were added to the cells and images acquired from 1 min to 15 min at 60 sec intervals. The two trimers show distinct uptake patters into Hela cells; to better understand the difference in uptake kinetics, we drew cross sectional profile plots through representative cells treated with tri-Tat A (FIG. 3c) and tri-cTat B (FIG. 3d). […] To investigate whether findings in individual cells also apply to larger populations, we extended the plot profile analysis by designating regions of interest (ROI) corresponding to plasma membrane, cytosol (excluding endosomes), nucleus, and nucleoli along the cross section, using information from brightfield images.^30 Average fluorescence intensities for each ROI, at each time point, in six cells per treatment group were calculated and plotted in FIGS. 3e-3h.
as §1

For data set [3], the system named is HeLa cells. The experiment in a line: Membrane integrity / porosity: propidium iodide uptake after trimer treatment. The following applies: 1 μM trimer; 40 μM PI added 20 min after trimer. The data set is classed as cell-based, human. Here is the method: To assess membrane integrity, 40 μM propidium iodide (PI; a cell impermeable dye), was added to Hela cells 20 min after the addition of the peptide trimer.

The test system of a further data set is CHO cells. Description: Live cell confocal microscopy: cellular uptake and intracellular distribution of Tat conjugates in CHO cells. It is filed as cell-based, Chinese hamster. The note with it: 60 min, post-wash. As to the method:
The cellular uptake and intracellular distribution of Tat-trimers and monomeric controls was investigated by performing live cell confocal microscopy of HeLa (human, cervical cancer) and CHO (Chinese hamster, epithelial) cells incubated with Tat conjugates (1 μM) in serum-free DMEM (60 min). Following washing, images were acquired using a Zeiss 780 confocal microscope fitted with an incubation chamber (FIG. 2). In accordance with observations that free Tat in the cytosol readily enters the nucleus and strongly binds to nucleoli,^29 homogenous staining of cytoplasm and nucleoli were considered as indicative of cells having accumulated free conjugate, not confined to endosomes, for quantification purposes. […] The uptake and intracellular distribution of tri-Tat A is similar in live Hela and CHO cells (FIG. 2b,d,e).
as §1

Data set [4] can be described thus: MTT assay of metabolic activity (cell viability). The data set is classed as cell-based. The note with it: human, HeLa cells, 1 μM for 60 min. Here is the method: Toxicity is a concern with potent intracellular delivery agents. We used an MTT assay to measure the metabolic activity of Hela cells treated with 1 μM tri-Tat A or tri-cTat B for 60 min (FIG. 4d). […] Tri-Tat A is slightly more toxic, which is consistent with the observation that the trimer forms membrane pores (cells 84.4% viable, 4 h post-treatment; 80.2% viable, 3 days post-treatment). The favourable uptake mechanism and low toxicity of tri-cTat B lead us to investigate this agent for its potential to transport biomacromolecular cargos into cells.
On the technique in general: Tetrazolium assays rely on reduction of a dye to a coloured formazan, in cell work by metabolically active cells.

Data set [5] has as its system HeLa cells. The experiment in a line: Co-delivery of antibodies, antibody fragments and RFP into live Hela cells. The data set is classed as cell-based, human. The following applies: 1 μM peptide.
From the text: Access to the cytosol by mechanisms that are independent of transmembrane pore formation constitutes a preferred method of co-delivery due to reduced toxicity to the cell. […] Successful delivery of Fab is indicated by homogenous distribution of AF647 signal in the cytosol and nucleus and is only observed in cells which have been transduced with tri-cTat B (FIG. 13). Time course of Fab uptake by tri-cTat B (FIG. 5c) follows a similar pattern as tri-cTat B alone (FIG. 3b, d). Tri-cTat B and Fab form large vesicle-like bodies that appear to release their contents into the cytosol of the cell; unambiguous cytosolic staining by Fab is observed from 23 min. Interaction between peptide trimer and biomacromolecule, mediated by charge-charge interactions is essential for the accumulation of both in endosomes and subsequent release and delivery of cargo into cells. Delivery of relatively β-sheet rich, neutrally charged recombinant RFP was unsuccessful (FIG. 16) due to a lack of association between tri-cTat B and cargo (FIG. 17). On the other hand, interaction diminishes the efficacy of the peptide trimer due to charge masking, emphasising the need to maintain an appropriate peptide to cargo ratio for a given macromolecule. Experiments to explore the efficacy of tri-cTat B in the presence of serum supplemented medium underline this principle; while tri-cTat B continues to function in the presence of serum, the number of transduced cells diminishes (42% (serum) vs. 61% (serum free)), but can be restored by increasing tri-cTat B concentration to 2 μM (79% (serum); FIG. 15). […] This is likely due to the larger size of antibodies and also to the observation that antibodies have a greater tendency to aggregate in the presence of tri-cTat B compared to Fab fragments. […] Finally, we investigated whether it is possible to deliver functional antibodies and antibody fragments into the cytosol and nuclei of cells. β-actin was chosen as a proof-of-principle protein because of its abundance in the cell and formation of distinctive subcellular filaments. To clearly identify actin filaments, Hela cells were transfected with red fluorescent protein fused to actin (actin-RFP) before being incubated with β-actin antibody (mouse IgG2b) or β-actin Fab fragment (mouse) conjugated to AF647 plus tri-cTat B for 30 min. After washing, cells were left for 60 min to allow IgG/Fab to bind to actin filaments. […] To enable objective quantification of co-localization between β-actin filaments and IgG/Fab fragment (white arrows), a co-localization threshold algorithm was used in selected regions of interest (ROI). Pearson's and Manders' coefficients were obtained under Costes' automatic threshold^32 and the co-localized pixels are shown as a mask of yellow pixels of constant intensity (co-localization panels). The significance of the co-localization parameters (Pearson's and Manders' coefficients) was evaluated using the confined displacement algorithm (CDA).
as §1, with “Statistical analysis was carried out using GraphPad Prism 7 software and all data used for statistical analysis consists of measurements from distinct cells. Where applicable a parametric, unpaired, two-tailed t-test was used for statistical testing.” left out

As usually defined, the viability is a read-out of living cells in per cent, often relative to untreated cells. A low value points to more harm to the cells. For the compound `N=C(N)NCCC[C@H](NC(=O)[C@H](CCCNC(=N)N)NC(=O)[C@H](CCCNC(=N)N)NC(=O)[C@H](CCC(N)=O)NC(=O)[C@H](CCCNC(=N)N)NC(=O)[C@H](CCCNC(=N)N)NC(=O)[C@H](CCCCN)NC(=O)[C@H](CCCCN)NC(=O)[C@H](CCCNC(=N)N)NC(=O)CCCc1cn(CC(Cn2cc(CCCC(=O)N[C@@H](CCCNC(=N)N)C(=O)N[C@@H](CCCCN)C(=O)N[C@@H](CCCCN)C(=O)N[C@@H](CCCNC(=N)N)C(=O)N[C@@H](CCCNC(=N)N)C(=O)N[C@@H](CCC(N)=O)C(=O)N[C@@H](CCCNC(=N)N)C(=O)N[C@@H](CCCNC(=N)N)C(=O)N[C@@H](CCCNC(=N)N)C(N)=O)nn2)(Cn2cc(CCCC(=O)N[C@@H](CCCNC(=N)N)C(=O)N[C@@H](CCCCN)C(=O)N[C@@H](CCCCN)C(=O)N[C@@H](CCCNC(=N)N)C(=O)N[C@@H](CCCNC(=N)N)C(=O)N[C@@H](CCC(N)=O)C(=O)N[C@@H](CCCNC(=N)N)C(=O)N[C@@H](CCCNC(=N)N)C(=O)N[C@@H](CCCNC(=N)N)C(N)=O)nn2)Cn2cc(CNC(=O)c3ccc4c(c3)C(=O)OC43c4ccc(N)c(S(=O)(=O)O)c4Oc4c3ccc(N)c4S(=O)(=O)O)nn2)nn1)C(N)=O` (some centres unmarked) [tri-Tat A], the “cellular uptake and intracellular distribution” value in the data set with HeLa cells [1] (1 μM, serum-free DMEM) is “homogenous cytosolic uptake and nucleolar staining; also recorded: taken up into the cytosol and nucleoli”; in the data set on CHO cells (1 μM, serum-free DMEM) it was “homogenous cytosolic uptake and nucleolar staining; also recorded: taken up into the cytosol and nucleoli”. Further, in the data set with HeLa cells [2], the “time after which cytosolic signal increases rapidly” value is around 12 min. Moreover, the “cytosolic signal relative to tri-cTat B (factor)” value in the data set on HeLa cells [2] (at 15 min, p<0.05) amounted to 2. For the same compound, in the data set on HeLa cells [2] (representative cells), the “association with plasma membrane (profile plots)” value is on record as “initial strong association”. For the same compound, the “association with the plasma membrane relative to tri-cTat B” value with HeLa cells [2] (t=1 to 15 min, p<0.05) is recorded as “approximately three”. Further, the “propidium iodide (PI) uptake / pore formation” value in the data set on HeLa cells [3] was “significantly higher; also recorded: co-stain with PI”. Besides, the viability at 4 h, 1 µM in data set [4] (4 h post-treatment) stood at 84.4%. Besides, the viability at 72 h, 1 µM in data set [4] (3 days post-treatment) turned out to be 80.2%.

Turning to “mono-Tat: monomeric control: linear Tat (49-57) peptide labelled with AF488 (RKKRRQRRR; also: AF488 label, place not given here; UniProt P04608 49-57, looked up, fragment)”, in the data set with HeLa cells [5] (Fab-AF647, 30 min), the “cellular uptake of Fab in the presence of the peptide” value is recorded as “no cellular uptake”. In addition, the “cellular uptake of IgG in the presence of the peptide” value in the data set on HeLa cells [5] (IgG-AF647, 45 min) is “no cellular uptake”. Besides, the “cellular uptake and intracellular distribution” value with HeLa cells [1] (1 μM, serum-free DMEM) is given as “not taken up”; in the data set with HeLa cells [1] (10 μM) it was “no cytosolic uptake or nucleolar staining; also recorded: taken up only into endosomes”; in the data set with CHO cells (1 μM, serum-free DMEM) it was “not taken up”; in the data set with CHO cells (10 μM) it was “no cytosolic uptake or nucleolar staining; also recorded: taken up only into endosomes”.

As to “tri-Tat B: AF488-labelled trimer of linear Tat (49-57) peptide on alkyne functionalized scaffold B (RKKRRQRRR; also: trimer on alkyne functionalized scaffold B, AF488 label, place not given here; UniProt P04608 49-57, looked up, fragment)”, the “cellular uptake and intracellular distribution” value is recorded as “no evidence of cytosolic uptake or nucleolar staining; also recorded: only taken up into endosomes” in the data set on HeLa cells [1] (1 μM, serum-free DMEM) and “no evidence of cytosolic uptake or nucleolar staining; also recorded: only taken up into endosomes” with CHO cells (1 μM, serum-free DMEM).
